Consider 31 compounds from patent US6949556B2, “Acylated 1,2,3,4-tetrahydronaphthyl amines and their use as pharmaceutical agents” (Aventis Pharma Deutschland GmbH, priority 2001, dated 2005).

pEC50: −log10 of the molar value.

The assay relates to eNOS promoter. Briefly: Activation of eNOS transcription (eNOS promoter firefly luciferase reporter). Particulars: EC50 of transcription induction ratio (TIR) vs compound concentration, determined graphically; stably transfected human endothelial cell line, 18 h incubation. It counts as cell-based. As to the method: Activation of eNOS transcription was measured as described in detail in Li et al. “Activation of protein kinase C alpha and/or epsilon enhances transcription of the human endothelial nitric oxide synthase gene”, Mol. Pharmacol. 1998; 53: 630-637. Briefly, a 3.5 kB long fragment 5′ of the starting codon of the eNOS gene was cloned, sequenced and cloned in firefly luciferase expression plasmids to monitor activation of the eNOS promoter by reporter gene activity. A human endothelial cell line stable transfected and expressing this promoter-reporter construct was used for compound testing. Cells were incubated for 18 h with compounds.
All compounds were dissolved in sterile DMSO. A final concentration of 0.5% DMSO in complete medium was allowed. Induction of reporter gene expression in these cells was measured using a standard luciferase assay system (Promega, Cat. No E150) according to the manufacturer's instructions. Luciferase induction in cells incubated with compounds were compared to those incubated with solvent alone. The ratio of both activities (transcription induction ratio, TIR) was plotted as a function of compound concentration. Typically, TIR values started at low concentrations at a ratio of 1, indicating no compound effect, and extended up to a maximum TIR value TIR(max) which indicates the increase of the eNOS transcription. EC50 values of transcription induction ratios as a function of compound concentration were determined graphically.
Background: Reporter assays use an easily measured gene product as a stand-in for the process of interest.
As usually defined, the pEC50 is the negative decadic logarithm of the EC50, by convention in mol/L. Consider `O=C(NC1CCc2ccccc2C1)c1ccc(F)cc1` (stereo not shown) [Compound 1, 4-Fluoro-N-(1,2,3,4-tetrahydro-naphth-2-yl)-benzamide], for which the pEC50 was 5.66.
For the compound `O=C(N[C@@H]1CCc2cccc(Br)c2C1)c1ccc(F)cc1` [Compound 4, (R)-N-(8-Bromo-1,2,3,4-tetrahydro-naphth-2-yl)-4-fluoro-benzamide], the pEC50 is under 4.52.
`O=C(N[C@H]1CCc2cccc(Br)c2C1)c1ccc(F)cc1` [Compound 5, (S)-N-(8-Bromo-1,2,3,4-tetrahydro-naphth-2-yl)-4-fluoro-benzamide]: the pEC50 was 5.00.
The result for `COc1cccc2c1CC[C@@H](NC(=O)c1ccc(F)cc1)C2` [Compound 6, (R)-N-(5-Methoxy-1,2,3,4-tetrahydro-naphth-2-yl)-4-fluoro-benzamide] reads 5.82; that for `COc1cccc2c1CC[C@H](NC(=O)c1ccc(F)cc1)C2` [Compound 7, (S)-N-(5-Methoxy-1,2,3,4-tetrahydro-naphth-2-yl)-4-fluoro-benzamide], 5.22.
For `CN(C)c1cccc(C(=O)N[C@@H]2CCc3ccccc3C2)c1` [Compound 10, 3-Dimethylamino-N-(R)-1,2,3,4-tetrahydro-naphthalen-2-yl-benzamide] the value was 5.02; for `CN(C)c1cccc(C(=O)N[C@H]2CCc3ccccc3C2)c1` [Compound 11, 3-Dimethylamino-N-(S)-1,2,3,4-tetrahydro-naphthalen-2-yl-benzamide], 4.89.
For `O=C(N[C@@H]1CCc2ccccc2C1)c1ccc(Cl)nc1` [Compound 14, 6-Chloro-N-(R)-1,2,3,4-tetrahydro-naphthalen-2-yl-nicotinamide] the value was 5.23; for `Nc1ncccc1C(=O)N[C@@H]1CCc2ccccc2C1` [Compound 17, 2-Amino-N-(R)-1,2,3,4-tetrahydro-naphthalen-2-yl-nicotinamide], 5.71.
Regarding `Cc1ccc(C(=O)N[C@@H]2CCc3ccccc3C2)cn1` [Compound 19, 6-Methyl-N-(R)-1,2,3,4-tetrahydro-naphthalen-2-yl-nicotinamide], the negative-log EC50 (pEC50) was 4.96.
For `Cc1ccc(C(=O)N[C@H]2CCc3ccccc3C2)cn1` [Compound 20, 6-Methyl-N-(S)-1,2,3,4-tetrahydro-naphthalen-2-yl-nicotinamide] the value was 4.61; for `O=C(N[C@H]1CCc2ccccc2C1)c1cccc2[nH]ccc12` [Compound 22, 1H-Indole-4-carboxylic acid-N-(S)-(1,2,3,4-tetrahydro-naphthalen-2-yl)-amide], 5.05.
The result for `O=C(N[C@@H]1CCc2ccccc2C1)c1ccc2[nH]cnc2c1` [Compound 23, 1H-Benzoimidazole-5-carboxylic acid N-(R)-(1,2,3,4-tetrahydro-naphthalen-2-yl)-amide] reads 4.94; that for `O=C(N[C@@H]1CCc2ccccc2C1)c1ccc2[nH]nnc2c1` [Compound 25, 1H-Benzotriazole-5-carboxylic acid N-(R)-(1,2,3,4-tetrahydro-naphthalen-2-yl)-amide], 5.34; that for `O=C(N[C@H]1CCc2ccccc2C1)c1ccc2[nH]nnc2c1` [Compound 26, 1H-Benzotriazole-5-carboxylic acid N-(S)-(1,2,3,4-tetrahydro-naphthalen-2-yl)-amide], 4.82.
For `Cc1ncccc1C(=O)N[C@@H]1CCc2ccccc2C1` [Compound 27, 2-Methyl-N-(R)-1,2,3,4-tetrahydro-naphthalen-2-yl-nicotinamide] the value was 6.74; for `Cc1nc(C)c(C(=O)N[C@@H]2CCc3ccccc3C2)s1` [Compound 29, 2,4-Dimethyl-thiazole-5-carboxylic acid N-(R)-(1,2,3,4-tetrahydro-naphthalen-2-yl)-amide], 4.98; for `Cc1nc(C)c(C(=O)N[C@H]2CCc3ccccc3C2)s1` [Compound 30, 2,4-Dimethyl-thiazole-5-carboxylic acid N-(S)-(1,2,3,4-tetrahydro-naphthalen-2-yl)-amide], 4.09.
`Cc1c(C(=O)N[C@@H]2CCc3ccccc3C2)cnn1-c1ccccc1` [Compound 31, 5-Methyl-1-phenyl-1H-pyrazole-4-carboxylic acid N-(R)-(1,2,3,4-tetrahydro-naphthalen-2-yl)-amide]: the pEC50 is 4.96.
The result for `Cc1c(C(=O)N[C@H]2CCc3ccccc3C2)cnn1-c1ccccc1` [Compound 32, 5-Methyl-1-phenyl-1H-pyrazole-4-carboxylic acid N-(S)-(1,2,3,4-tetrahydro-naphthalen-2-yl)-amide] reads 5.95; that for `O=C(N[C@@H]1CCc2ccccc2C1)c1cnn(-c2ccc(Cl)cc2)c1C(F)(F)F` [Compound 33, 1-(4-Chloro-phenyl)-5-trifluoromethyl-1H-pyrazole-4-carboxylic acid N-(R)-(1,2,3,4-tetrahydro-naphthalen-2-yl)-amide], 5.15; that for `O=C(N[C@H]1CCc2ccccc2C1)c1cnn(-c2ccc(Cl)cc2)c1C(F)(F)F` [Compound 34, 1-(4-Chloro-phenyl)-5-trifluoromethyl-1H-pyrazole-4-carboxylic acid N-(S)-(1,2,3,4-tetrahydro-naphthalen-2-yl)-amide], 5.00.
`Cc1cnc(C(=O)N[C@@H]2CCc3ccccc3C2)cn1` [Compound 35, 5-Methyl-pyrazine-2-carboxylic acid N-(R)-(1,2,3,4-tetrahydro-naphthalen-2-yl)-amide]: the pEC50 is 4.83.
For `Cc1cnc(C(=O)N[C@H]2CCc3ccccc3C2)cn1` [Compound 36, 5-Methyl-pyrazine-2-carboxylic acid N-(S)-(1,2,3,4-tetrahydro-naphthalen-2-yl)-amide] the value was 6.48; for `Cc1ccc(C(=O)N[C@@H]2CCc3ccccc3C2)c(Cl)n1` [Compound 39, 2-Chloro-6-methyl-N-(R)-1,2,3,4-tetrahydro-naphthalen-2-yl-nicotinamide], 4.55; for `Cc1ccc(C(=O)N[C@H]2CCc3ccccc3C2)c(Cl)n1` [Compound 40, 2-Chloro-6-methyl-N-(S)-1,2,3,4-tetrahydro-naphthalen-2-yl-nicotinamide], 4.87.
The result for `Cc1nc(-c2ccccc2)sc1C(=O)N[C@@H]1CCc2ccccc2C1` [Compound 41, 4-Methyl-2-phenyl-thiazole-5-carboxylic acid N-(R)-(1,2,3,4-tetrahydro-naphthalen-2-yl)-amide] reads 4.69; that for `Cc1nc(-c2ccccc2)sc1C(=O)N[C@H]1CCc2ccccc2C1` [Compound 42], 4.80.
As to `Cc1cc(C)c(C(=O)N[C@@H]2CCc3ccccc3C2)c(N)n1` [Compound 43, 2-Amino-4,6-dimethyl-N-(R)-1,2,3,4-tetrahydro-naphthalen-2-yl-nicotinamide], the pEC50 is 4.69.
On to `Cc1nc(C(F)(F)F)c(C(=O)N[C@@H]2CCc3ccccc3C2)s1` [Compound 45, 2-Methyl-4-trifluoromethyl-thiazole-5-carboxylic acid N-(R)-(1,2,3,4-tetrahydro-naphthalen-2-yl)-amide], for which the pEC50 is 6.54.
The result for `Cc1nc(C(F)(F)F)c(C(=O)N[C@H]2CCc3ccccc3C2)s1` [Compound 46, 2-Methyl-4-trifluoromethyl-thiazole-5-carboxylic acid-N-(S)-(1,2,3,4-tetrahydro-naphthalen-2-yl)-amide] reads 6.39.
